Experimental data as given in patent US20230233650A1, “NOVEL FATTY ACID MODIFIED UROCORTIN 2 DERIVATIVES AND THE USES THEREOF” (Novo Nordisk A/S, priority 2021, published 2023).
Numbered stars: 1 amine (or outer) side, 2 acyl side, 3 side chain; on linkers, the order of the positions; unused ones are H or OH. Side chains are listed from the residue outwards. Peptide text beside a SMILES is read from it. * marks the point of attachment. C20 diacid = O=C(O)CCCCCCCCCCCCCCCCCCC(=O)*; γGlu = O=C(O)[C@H](CCC(=O)[*:2])N[*:1]; AEEA = NCCOCCOCC(=O)O

Columns and labels:
Human CRF2 receptor = target: T1, Human CRF2 receptor (Homo sapiens, UniProt Q13324); assay: CRF2 receptor binding, scintillation proximity assay (SPA); details: displacement of [125I]-Sauvagine, CHO-K1 cell membranes
T1 construct: host or cells: CHO-K1 (membrane preparation)
T1 sequence (Q13324 1-411): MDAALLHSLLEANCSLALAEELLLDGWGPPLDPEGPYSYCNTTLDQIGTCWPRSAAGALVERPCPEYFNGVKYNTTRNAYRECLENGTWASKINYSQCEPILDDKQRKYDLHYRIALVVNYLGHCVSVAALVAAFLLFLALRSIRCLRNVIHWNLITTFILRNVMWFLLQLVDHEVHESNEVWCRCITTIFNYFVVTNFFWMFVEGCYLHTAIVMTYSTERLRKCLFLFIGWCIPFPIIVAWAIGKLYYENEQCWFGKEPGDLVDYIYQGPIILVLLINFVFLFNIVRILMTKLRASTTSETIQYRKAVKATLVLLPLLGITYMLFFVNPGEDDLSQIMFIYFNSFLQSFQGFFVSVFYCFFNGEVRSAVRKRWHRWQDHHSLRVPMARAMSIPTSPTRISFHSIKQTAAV
Method: (§1) The purpose of this example was to test the in vitro binding of the compounds of the invention to receptor subtypes CRF1 and CRF2. The in vitro binding of the compounds was determined in a scintillation proximity assay (SPA) as described below. The native, human Ucn1 and Ucn2 peptides are included as references. Scintillation Proximity Assay: […] Both cell lines were cultured at 37° C. in a humidified atmosphere with 5% CO2. […] Membranes were prepared by the following protocol: cultured cells were washed twice with cold Dulbecco’s phosphate buffered saline and detached using TrypLE™ (ThermoFisher) and transferred to tubes and centrifuged for 5 minutes at 1000 g at +4° C. Pellets were resuspended in ice cold homogenization buffer (20 mM Hepes pH 7.1, 5 mM MgCl2, 1 mg/ml Bacitracin with 2 complete EDTA-free protease inhibitor cocktail tablets/50 ml (Roche)) and then homogenized for 30 seconds using a Ultra-Turrax T25 tissue homogenizer (IKA) at medium speed. The homogenate was centrifuged at 35,000 g for 15 minutes at +4° C. using an ultracentrifuge, and the supernatant was discarded, and fresh homogenization buffer was added. Homogenization of the pellet was repeated a total of three times. The final pellet was resuspended in a few millilitres of homogenization buffer and protein concentration was determined using the Bradford method. The membrane preparation was transferred to cryotubes, and the aliquots were stored at -80° C. Each membrane preparation was subsequently titrated to give an appropriate window in the assay. Test procedure: […] Plates were sealed and incubated at 25° C. for 2 hours in a plate shaker set at 400 rpm and thereafter centrifuged at 1500 rpm for 10 minutes. SPA plates were let to stand at room temperature for about 16 hours prior to reading on microplate scintillation counter. Displacement of radioligand was measured as reduction in luminescence, and IC50 values were calculated by nonlinear regression analysis of four parameter sigmoidal dose-response curves.

Human CRF1 receptor = target: T2, Human CRF1 receptor (Homo sapiens, UniProt P34998); assay: CRF1 receptor binding, scintillation proximity assay (SPA); details: displacement of [125I]-Sauvagine, CHO-K1 cell membranes
T2 construct: host or cells: CHO-K1 (membrane preparation)
T2 sequence (P34998 24-415): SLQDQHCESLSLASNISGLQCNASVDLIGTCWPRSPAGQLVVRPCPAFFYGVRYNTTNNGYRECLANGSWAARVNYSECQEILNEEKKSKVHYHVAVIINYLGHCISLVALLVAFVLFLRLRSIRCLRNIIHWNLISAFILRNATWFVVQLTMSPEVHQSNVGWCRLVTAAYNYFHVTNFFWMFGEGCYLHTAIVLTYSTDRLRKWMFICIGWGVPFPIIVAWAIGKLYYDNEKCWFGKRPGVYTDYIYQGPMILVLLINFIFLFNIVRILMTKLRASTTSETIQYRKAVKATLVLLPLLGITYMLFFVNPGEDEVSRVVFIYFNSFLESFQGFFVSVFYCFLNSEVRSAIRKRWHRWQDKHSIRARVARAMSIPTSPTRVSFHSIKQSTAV
Method: as §1

IC50 (Human CRF2 receptor) [nM] | IC50 (Human CRF1 receptor) [nM] | SMILES
1.14 | > 1000 | CC[C@H](C)[C@H](NC(=O)[C@H](CCC(=O)O)NC(=O)[C@H](C)NC(=O)[C@H](CC(N)=O)NC(=O)[C@@H](NC(=O)[C@@H](NC(=O)[C@H](C)NC(=O)[C@H](CCC(N)=O)NC(=O)[C@H](CCC(=O)O)NC(=O)[C@H](CCCNC(=N)N)NC(=O)[C@H](C)NC(=O)[C@H](C)NC(=O)[C@H](CCCNC(=N)N)NC(=O)[C@H](C)NC(=O)[C@H](CCCNC(=N)N)NC(=O)[C@H](C)NC(=O)[C@H](CCC(N)=O)NC(=O)[C@H](CCC(=O)O)NC(=O)[C@H](CC(C)C)NC(=O)[C@H](CC(C)C)NC(=O)[C@@H](NC(=O)[C@H](CCC(N)=O)NC(=O)[C@H](CC(C)C)NC(=O)[C@H](CC(C)C)NC(=O)CNC(=O)[C@@H](NC(=O)[C@@H]1CCCN1C(=O)[C@@H](NC(=O)[C@H](CC(=O)O)NC(=O)[C@H](CC(C)C)NC(=O)[C@H](CO)NC(=O)[C@H](CC(C)C)NC(=O)[C@@H](NC(=O)[C@@H](NC(=O)[C@@H](N)CCCCNC(=O)COCCOCCNC(=O)COCCOCCNC(=O)CC[C@H](NC(=O)CC[C@H](NC(=O)CC[C@H](NC(=O)CCCCCCCCCCCCCCCCCCC(=O)O)C(=O)O)C(=O)O)C(=O)O)[C@@H](C)CC)C(C)C)C(C)C)[C@@H](C)CC)[C@@H](C)CC)[C@@H](C)O)[C@@H](C)O)C(=O)N[C@@H](CC(C)C)C(=O)N[C@@H](C)C(=O)N[C@@H](CCC(=O)O)C(=O)N[C@H](C(N)=O)C(C)C [Compound 3] (H-K([AEEA-AEEA-γGlu-γGlu-γGlu-C20 diacid])IVLSLDVPIGLLQILLEQARARAAREQATTNAEILAEV-NH2)
1.47 | > 1000 | CC[C@H](C)[C@H](NC(=O)[C@H](CCC(=O)O)NC(=O)[C@H](C)NC(=O)[C@H](CC(N)=O)NC(=O)[C@@H](NC(=O)[C@@H](NC(=O)[C@H](C)NC(=O)[C@H](CCC(N)=O)NC(=O)[C@H](CCC(=O)O)NC(=O)[C@H](CCCNC(=N)N)NC(=O)[C@H](C)NC(=O)[C@H](C)NC(=O)[C@H](CCCNC(=N)N)NC(=O)[C@H](C)NC(=O)[C@H](CCCNC(=N)N)NC(=O)[C@H](C)NC(=O)[C@H](CCC(N)=O)NC(=O)[C@H](CCC(=O)O)NC(=O)[C@H](CC(C)C)NC(=O)[C@H](CC(C)C)NC(=O)[C@@H](NC(=O)[C@H](CCC(N)=O)NC(=O)[C@H](CC(C)C)NC(=O)[C@H](CC(C)C)NC(=O)CNC(=O)[C@@H](NC(=O)[C@@H]1CCCN1C(=O)[C@@H](NC(=O)[C@H](CC(=O)O)NC(=O)[C@H](CC(C)C)NC(=O)[C@H](CO)NC(=O)[C@H](CC(C)C)NC(=O)[C@@H](NC(=O)[C@@H](NC(=O)[C@@H](N)CCCCNC(=O)COCCOCCNC(=O)COCCOCCNC(=O)CC[C@H](NC(=O)CC[C@H](NC(=O)CC[C@H](NC(=O)CCCCCCCCCCCCCCCCCCC(=O)O)C(=O)O)C(=O)O)C(=O)O)[C@@H](C)CC)C(C)C)C(C)C)[C@@H](C)CC)[C@@H](C)CC)[C@@H](C)O)[C@@H](C)O)C(=O)N[C@@H](CC(C)C)C(=O)N[C@@H](CCC(=O)O)C(=O)N[C@@H](CCCNC(=N)N)C(=O)N[C@H](C(N)=O)C(C)C [Compound 4] (H-K([AEEA-AEEA-γGlu-γGlu-γGlu-C20 diacid])IVLSLDVPIGLLQILLEQARARAAREQATTNAEILERV-NH2)
